Test system: adults of Culex pipiens pallen
Assay: Blood-sucking repelling test on forearms
Type: in vivo
Settings: 1% test sample solution on forearms, 15 minutes exposure, 30° C., humidity 70%
Description: […] of 1% test sample solutions were prepared by dissolving 1 g of each of the fragrant compositions of Examples 1, 2 and 3, Comparative Example 3 (Pelargonium citrosum extract), and Comparative Example 4 (DEET) into 90 g of ethanol and adding 9 g of water.
On the sample solutions of Examples 1, 2 and 3 and Comparative Examples 3 and 4, a blood-sucking repelling test toward adults of Culex pipiens pallen was carried out, whereby strength of mosquito-repellency and persistency were compared.
The test was carried out in a constant-temperature room kept at a temperature of 30° C. and a humidity of 70%.
After 10 ml of each test sample solution was applied onto right and left forearms, each arm was entered for 15 minutes into a bag-shape wire netting having a size of 20 cm×15 cm in which 50 each of male and female mosquitoes which were 5 to 7 days after emergence were placed, whereby the mosquitoes were allowed to suck blood. This operation was repeatedly carried out 1 hour, 2 hours, 3 hours, 4 hours, and 6 hours after the sample application, the number of sucked places within the sucking time was counted, and repellency was calculated according to the following equation.
Repellency=[(X−Y)/X]×100(%)
X: the number of sucked places in the case that no test sample solution was applied.
Y: the number of sucked places in the case that a test sample solution was applied.

CCN(CC)C(=O)c1cccc(C)c1 [Comparative Example 4, N,N-Diethyl-m-toluamide]
100%: Repellency After 1 hour (1 hour after application) | Repellency After 2 hours (2 hours after application) | Repellency After 3 hours (3 hours after application) | Repellency After 4 hours (4 hours after application) | Repellency After 6 hours (6 hours after application)
